Data published in patent US7872052B2, “Use of heterocyclic compounds as SCCE inhibitors” (Arexis AB, priority 2003, dated 2011).
pIC50: −log10 of the molar value.

Experiments:
[1] = system: Transgenic mice over-expressing human SCCE; assay: Histological studies of skin morphology in SCCE transgenic mice after topical treatment; format: in vivo; conditions: for side effects (unusually thin epidermis): day 8 histology; for Unusually thin epidermis / Morphology changes: topical once daily 8 days, day 8; for Unusually thin epidermis: mice affected/mice in group; for Morphology changes: mice with changes/mice in group
Excerpt: (§1) Transgenic mice over-expressing human SCCE under the control of the SV40 early promoter were generated as described in WO 02/062135. These transgenic mice show a pattern of SCCE-expression which is similar to the expression pattern seen in psoriasis lesions and chronic lesions in atopic dermatitis in humans, i.e. expression in suprabasal cells which increases with distance from the basal layer. The transgenic mice develop pathological skin changes with marked hyperkeratosis, increased epidermal thickness, and dermal inflammation. From the age of 8-10 weeks transgenic mice show signs of itch, the frequency of which increase with age. The increase marked changes in skin morphology including increased epidermal thickness, also causes higher transepidermal water loss.
(§2) Transgenic mice, 6-9 month of age, were treated daily with compound I-3 (2-(2-Iodo-phenyl)-6,7-dimethoxy-benzo[d][1,3]oxazin-4-one) which was identified as an SCCE inhibitor as described above during 8 days. The substance was initially dissolved in DMSO and formulated in vehicle containing 45% isopropanol, 6% 1,2-propanediol with a 1.2% final concentration of DMSO. Two different concentrations of inhibitor, 300 μM and 30 μM, were formulated.
The study contained four different treatments with 3-4 mice in each group. Each mouse used in the study had phenotypic changes typical of SCCE transgenic animals.
• high dose (300 μM) of compound I-3 • low dose (30 μM) of compound I-3 • positive control (a pharmaceutical formulation (Betnovat, Glaxo SmithKline AB) containing betametasone) • negative control, vehicle (a pharmaceutical formulation lacking active substance)
The formulations (500 μl/mouse) were applied once daily (late afternoon) on the area around the ears and on the back of the mice. Mice were treated during 8 days and measurements of transepidermal water loss (TEWL) were performed during the treatment period.
Histological studies of skin morphology were performed on sacrificed mice after the last day of treatment (day 8). Tissue samples were fixed in 4% phosphate-buffered formaldehyde for 24 h in room temperature (RT) and then embedded in paraffin using standard histological procedure. To analyze tissue morphology, embedded tissue was sectioned (5 μm) and then stained with haematoxylin and Eosin (H/E) using standard histological protocols.

[2] = system: Transgenic mice over-expressing human SCCE; assay: Transepidermal water loss (TEWL) in SCCE transgenic mice after topical treatment; format: in vivo; conditions: both concentrations (30 μM and 300 μM), topical once daily, 8 days, relative to positive control Betamethasone
Excerpt: as §1
as §2, with “Two different concentrations of inhibitor, 300 μM and 30 μM, were formulated.” left out
TEWL was measured on the back of mice with an Evaporimeter from DermaLAB (Cortex Technology ApS, Hadsund, Denmark) according to manufactures protocol. […] TEWL was measured on in the morning at day 0, 3, 5 and 8 for 1 min repeated twice.

[3] = biological target: T1, Recombinant active human SCCE (Homo sapiens, UniProt P49862); assay: SCCE Inhibitor Test (chromogenic substrate S-2586, absorbance at 405 nm); format: biochemical; conditions: for pIC50: 10 min preincubation, 1 mM S-2586, 60 min, 37° C, pH 7.2; for remaining activity at 1 µM: 1 μM compound; for remaining activity at 5 µM: 5 μM compound
T1 construct: made in house; host or cells: murine C127 cells transfected with a BPV vector (murine MT promoter)
Method: Recombinant active human SCCE was produced essentially as described in WO 95/00651. The cDNA encoding human SCCE was introduced into a BPV vector under the control of the murine MT promoter and expressed in transfected C127 cells. The produced SCCE was purified and activated using immobilized bovine trypsin.
SCCE activity was determined using the chromogenic substrate S-2586 (MeO-Suc-Arg-Pro-Tyr-pNA) (Chromogenix, Mölndal, Sweden) by measurement of the change in absorbance at 405 nm essentially as described in WO 95/00651. Inhibitors were dissolved in DMSO and added to the reaction mixture (10 mM sodium phosphate, pH 7.2, 0.5 M NaCl, 2.5 μg/ml SCCE) at appropriate concentrations followed by incubation for 10 min before the start of the enzymatic reaction by subsequent addition of the substrate S-2586 to a final concentration of 1 mM. The change in absorbance at 405 nm after 60 min was recorded and used as a measure of SCCE activity. The assay temperature was 37° C. […] The IC50 values were used to identify compounds as SCCE inhibitors of the invention.

[4] = positive control formulation (Betnovat)

T1 sequence (P49862 30-253): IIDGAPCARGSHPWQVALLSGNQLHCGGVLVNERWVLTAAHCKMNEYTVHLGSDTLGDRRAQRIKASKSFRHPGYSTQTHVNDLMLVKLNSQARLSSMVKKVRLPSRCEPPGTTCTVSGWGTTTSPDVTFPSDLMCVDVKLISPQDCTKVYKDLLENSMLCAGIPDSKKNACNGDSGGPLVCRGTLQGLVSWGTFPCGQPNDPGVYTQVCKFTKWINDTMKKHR

C[C@H]1C[C@H]2[C@@H]3CCC4=CC(=O)C=C[C@]4(C)[C@@]3(F)[C@@H](O)C[C@]2(C)[C@@]1(O)C(=O)CO [Betamethasone, reference compound]
side effects (unusually thin epidermis) [1]: side effects (unusually thin epidermis) found
Unusually thin epidermis [1, 4]: 3/3
Morphology changes [1, 4]: 0/3

COc1cc2nc(-c3ccccc3I)oc(=O)c2cc1OC [Compound I-3, 2-(2-Iodo-phenyl)-6,7-dimethoxy-benzo[d][1,3]oxazin-4-one]
Unusually thin epidermis ([1]; 30 μM): 0/4
Morphology changes ([1]; 30 μM): 1/4
Unusually thin epidermis ([1]; 300 μM): 0/4
Morphology changes ([1]; 300 μM): 1/4
effects on skin morphology ([1]; both concentrations (30 μM and 300 μM), compared with vehicle group): positive effects on skin morphology to a higher degree then vehicle group
side effects (unusually thin epidermis) [1]: without the side effects
improvement of TEWL [2]: improves TEWL with approximately half the efficiency of the positive control
pIC50 [3]: 7.00
remaining activity at 10 µM ([3]; 1 h, 10 μM compound): 0%

COc1cccc(-c2nc3sc4c(c3c(=O)o2)CCCC4)c1 [II-20, 2-(3-Methoxy-phenyl)-5,6,7,8-tetrahydro-3-oxa-9-thia-1-aza-fluoren-4-one]
pIC50 [3]: 5.70
remaining activity at 1 µM ([3]; 1 h): 52%
remaining activity at 5 µM ([3]; 1 h): 42%

O=c1oc(-c2ccncc2)nc2sc3c(c12)CCCCC3 [II-21, 2-Pyridin-4-yl-6,7,8,9-tetrahydro-5H-3-oxa-10-thia-1-aza-benzo[a]azulen-4-one]
pIC50 [3]: 5.70

Cc1nc2sc3c(c2c(=O)o1)CCCCC3 [II-22, 2-Methyl-6,7,8,9-tetrahydro-5H-3-oxa-10-thia-1-aza-benzo[a]azulen-4-one]
pIC50 [3]: < 5.00
remaining activity at 1 µM ([3]; 1 h): 49%
remaining activity at 5 µM ([3]; 1 h): 27%
